Patent publication US20200297015A1, “TRYPTOPHAN DERIVATIVES AS SWEETENERS” (CHROMOCELL CORPORATION, priority 2017, published 2020)

Assays:
[1] = tested on: sweetness intensity in humans; assay: Discriminative sensory evaluation of sweetness intensity, two-alternative forced choice sip and spit (2AFC) in water; format: in vivo, human
Procedure: The test compounds were evaluated for sweetness intensity in a aqueous solution in humans using a two-alternative forced choice “sip and spit” method (2AFC).
Preparation of Samples for Sensory Taste Tests: • Control Sample: Sucrose (various levels) • Variant Sample: Compound 1, 5 and 8
The control samples for the discrimination taste test were prepared by dissolving the sucrose directly in water at the indicated test concentrations Variant sample containing Compound 1 was prepared by dissolving Compound i directly in water at the desired concentration. Variant sample containing Compound 5 and 8 were prepared by dissolving the respective sodium salts of the compounds directly in water (refer to Example 4).
The 2AFC test used for compound evaluation was a double blinded and randomized test where taste panelists (n≥12) evaluate a pair of sweetened solutions at a time—one sample is sweetened with sucrose (i.e. control) while the other sample is sweetened with the test compound (i.e. variant). Panelists were instructed not to eat or drink (except water) for at least 1 h before the test. During the test, panelists were instructed to sip each sample, swirl it around their mouth and then expectorate. After tasting each sample in the pair, panelists were instructed to record the sample that is “sweeter” in taste. Panelists cleansed their palates by rinsing with water, eating a cracker and waiting for an interval of about 5 minutes. All samples were tasted at ambient temperatures. Data were analyzed using binomial probabilities.

[2] = Solubility: concentrated stock by conversion to sodium salt form; format: physicochemical; details: for concentrated stock compared to the free base form: sodium salt form vs free base form; for concentrated solution prepared: sodium salt form, with 5.5% by weight sodium hydroxide in de-ionized water, vortex and sonication 30-120 s
Description: Compounds 5 and 8 have been prepared at an increased concentration for commercial applications by converting them into their respective sodium salt forms. The process of converting to a salt form was obtained by dissolving the Compounds in water and adding a set quantity of sodium hydroxide or potassium hydroxide solution. A concentrated solution of 30% by weight of Compound 5 and 8 has been prepared by this method. This has been achieved by combining 30%, by weight, of Compound 5 or Compound 8 with 5.5%, by weight, of sodium hydroxide in de-ionized water. The mixture is subjected to intermittent vortex and sonication for a duration of 30-120 s. This process achieves a 300 times concentrated stock compared to the free base form of Compound 5 and 8, thereby enabling delivery of an increased concentration of the compounds in a model beverage/matrix. The sodium/potassium salt can increase solubility by changing neutral zwitterion to more hydrophilic negative charged anion.

[3] = tested on: sweetness intensity (expert tasters); assay: Reference scaling of sweetness intensity against sucrose references by expert tasters; format: in vivo, human; details: for Sweetness Intensity (avg): @ 1000 ppm, ranked against sucrose references (5%, 7.5%, 10%), n>5
Procedure: (§1) Preparation of Samples for Taste Tests: • Control Sample: 250 ppm, 500 ppm and 1000 ppm of D-Tryptophan • Variant Sample: 250 ppm, 500 ppm and 1000 ppm of Compound 5 Samples for the taste test were prepared by dissolving, both the control and variant samples, directly in water at the desired test concentrations.
In another test, expert tasters (n>5) also tasted Compound 5 and Control Samples to a set of sucrose references (5%, 7.5%, 10%) and ranked the Test and Control samples for sweetness intensity compared to sucrose references. At the same concentration, Compound 5 achieves higher (close to 2 fold) potency compared to Control compound.

[4] = tested on: perception of sweet taste in humans; assay: Descriptive Analysis (DA) sensory evaluation by trained panel, aqueous matrix; format: in vivo, human; details: for Bitter @ 18 sec / Bitter @ 1 min / Bitter @ 1 min 30 s / Bitter @2 min / Bitter @3 min / Sweet @ 18 sec / Sweet @ 1 min / Sweet @ 1 min 30 s / Sweet @ 2 min: intensity on 15 cm scale; for Bitter @ 18 sec / Bitter @ 1 min / Bitter @ 1 min 30 s / Bitter @2 min / Bitter @3 min / Sweet @ 18 sec / Sweet @ 1 min / Sweet @ 1 min 30 s / Sweet @ 2 min / Sweet AT: in water, 500 ppm Rebaudioside M (control), 1500 ppm Compound 5 (variant), n≥12; for Sweet AT: sweet appearance time
Procedure: The effect of the test compound on the perception of sweet taste in an aqueous matrix was evaluated using a descriptive analysis methodology with a group of trained panelists, as follows.
Preparation of Samples for Sensory Taste Tests: • Control Sample: 500 ppm Rebaudioside M • Variant Sample: 1500 ppm Compound 5 Samples for the descriptive analysis taste test were prepared by dissolving, both the control and variant samples, directly in water at the desired test concentrations.
The taste test panelists used in Example I were selected using a sensory acuity screening program and then trained in descriptive analysis taste testing. Candidate panelists were recruited, with prescreening and personal interviews, and were assessed for their ability to detect, recognize and differentiate basic taste attributes or mixtures thereof as part of a standardized acuity test. These candidate panelists were also assessed for their innate ability to identify flavors, and to rank on intensity scales. Other senses such as smell and vision were also included as part of the assessment. Candidates also were screened for their ability to use the language to describe and articulate ideas.
The method was performed as a double blinded, randomized test, where trained Descriptive Analysis taste panelists (n≥12) profiled the maximum intensity perceived at 18 seconds, of the control sample and the variant sample for the following 3 attributes; sweet, bitter and sweet appearance time. In addition to the maximum intensity, the panelists continued to assess sweet and bitter intensity (at 1 min, 1.5 min, 2 min, and 3 min), to generate a discontinuous time scale Intensity profile (TSI) of sweet and bitter percepts to gain an understanding of the taste profile of the control and variant samples. Each panelist scored sweetness intensity on a 15 cm scale, with the control and variant sample being determined to be iso-sweet by ANOVA at 18 seconds.

[5] = tested on: sweetness intensity (expert tasters); assay: Sweetness potency comparison vs D-Tryptophan, paired comparison by expert tasters; format: in vivo, human; details: in water, n>5
Procedure: The sweetness potency of the test compound was compared D-Tryptophan to understand potency differences between the test compound and non-methylated variants of D-tryptophan.
as §1
Expert tasters (n>5) tasted the control and test samples in a blinded experiment and assessed sweetness intensity (at the same concentration) via paired comparison. Each taster evaluated a pair of sweetened solutions at a time—one sample is sweetened with Control compound (i.e. control) while the other sample is sweetened with the test compound (i.e. variant). After tasting each sample in the pair, tasters were instructed to record the sample that is “sweeter” in taste. All samples were tasted at ambient temperatures.

sweet taste = details: Optimising Sweet Taste in Foods, 2006; cited from earlier work

SMILES	concentrated stock compared to the free base form [2] [times]	concentrated solution prepared [2] [% by weight]	Sweetness Intensity (avg) [3] [% Sucrose equivalent]	Bitter @ 18 sec [4]	Bitter @ 1 min [4]	Bitter @ 1 min 30 s [4]	Bitter @2 min [4]	Bitter @3 min [4]	Sweet @ 18 sec [4]	Sweet @ 1 min [4]	Sweet @ 1 min 30 s [4]	Sweet @ 2 min [4]	Sweet AT [4]	also measured
Cc1cccc2[nH]cc(CC(N)C(=O)O)c12 (centres unmarked) [Compound 1, 2-amino-3-(4-methyl-1H-indol-3-yl)propanoic acid]														Number picking Variant ([1]; Compound 1 @ 1000 ppm vs 10% Sucrose, in water, Total Number 38): 25
Cc1[nH]c2ccccc2c1C[C@@H](N)C(=O)O [Compound 8, (R)-2-amino-3-(2-methyl-1H-indol-3-yl)propanoic acid]	300	30												Number picking Variant ([1]; Compound 8 @ 3000 ppm (sodium salt dissolved in water) vs 8% Sucrose, Total Number 20): 11
N[C@H](Cc1c[nH]c2ccccc12)C(=O)O [Control, D-Tryptophan, reference compound]			5.83											
Cc1ccc2[nH]cc(C[C@@H](N)C(=O)O)c2c1 [Compound 5, (R)-2-amino-3-(5-methyl-1H-indol-3-yl)propanoic acid]	300	30	9.25	2.2	1.2	0.5	0.1	0.1	10.8	6.5	4.6	3	4.8	lingering effects, sweet and bitter, as compared to the Rebaudioside M sample ([4]; by ANOVA, at multiple time points, 1500 ppm Compound 5 vs 500 ppm Rebaudioside M): significantly less; Number picking Variant ([1]; Compound 5 @ 2000 ppm (sodium salt dissolved in water) vs 12% Sucrose, Total Number 38): 26; % picking Test as “sweeter” ([5]; Compound 5 @ 250 ppm vs Control (D-Tryptophan) @ 250 ppm): 100%; % picking Test as “sweeter” ([5]; Compound 5 @ 500 ppm vs Control (D-Tryptophan) @ 500 ppm): 100%; % picking Test as “sweeter” ([5]; Compound 5 @ 1000 ppm vs Control (D-Tryptophan) @ 1000 ppm): 100%; potency compared to Control compound ([3]; at the same concentration, Control = D-Tryptophan): ~2 fold
N[C@H](Cc1c[nH]c2cc(Cl)ccc12)C(=O)O [6-chloro-D-tryptophan]														sweeter than sucrose (sweet taste): 1000 times
C=C1C[C@@]23CC[C@H]4[C@@](C)(CCC[C@@]4(C)C(=O)O[C@@H]4O[C@H](CO)[C@@H](O)[C@H](O[C@@H]5O[C@H](CO)[C@@H](O)[C@H](O)[C@H]5O)[C@H]4O[C@@H]4O[C@H](CO)[C@@H](O)[C@H](O)[C@H]4O)[C@@H]2CC[C@]1(O[C@@H]1O[C@H](CO)[C@@H](O)[C@H](O[C@@H]2O[C@H](CO)[C@@H](O)[C@H](O)[C@H]2O)[C@H]1O[C@@H]1O[C@H](CO)[C@@H](O)[C@H](O)[C@H]1O)C3 [Rebaudioside M, reference compound]				3.3	2.2	1.4	0.7	0.3	10.7	7.2	5.3	3.6	5.9	
